Test results as given in ChEMBL document CHEMBL2331210, “New 2-benzylsulfanyl-nicotinic acid based 1,3,4-oxadiazoles: their synthesis and biological evaluation” (2013).
In brackets after ≈: the same amount, converted by molar mass.

What was measured:
Type in all cases: functional
Aspergillus niger = experiment: Antimicrobial activity against Aspergillus niger MTCC 282 assessed as growth inhibition measured after overnight incubation by broth dilution method
Escherichia coli = experiment: Antimicrobial activity against Escherichia coli MTCC 443 assessed as growth inhibition measured after overnight incubation by broth dilution method
Candida albicans = experiment: Antimicrobial activity against Candida albicans MTCC 227 assessed as growth inhibition measured after overnight incubation by broth dilution method
Pseudomonas aeruginosa = experiment: Antimicrobial activity against Pseudomonas aeruginosa MTCC 2488 assessed as growth inhibition measured after overnight incubation by broth dilution method
Staphylococcus aureus = experiment: Antimicrobial activity against Staphylococcus aureus MTCC 96 assessed as growth inhibition measured after overnight incubation by broth dilution method
Streptococcus pyogenes = experiment: Antimicrobial activity against Streptococcus pyogenes MTCC 442 assessed as growth inhibition measured after overnight incubation by broth dilution method
Aspergillus clavatus = experiment: Antimicrobial activity against Aspergillus clavatus MTCC 1323 assessed as growth inhibition measured after overnight incubation by broth dilution method
[1] = test system: Mycobacterium tuberculosis; experiment: Antitubercular activity against Mycobacterium tuberculosis H37Rv assessed as growth inhibition after 12 to 28 days by L.J. agar MIC method; conditions: for MIC: Mycobacterium tuberculosis, H37Rv

SMILES | MIC (Aspergillus niger) [µg/mL] | MIC (Escherichia coli) [µg/mL] | MIC (Candida albicans) [µg/mL] | MIC (Pseudomonas aeruginosa) [µg/mL] | MIC (Staphylococcus aureus) [µg/mL] | MIC (Streptococcus pyogenes) [µg/mL] | MIC (Aspergillus clavatus) [µg/mL] | growth inhibition (GI) [1] [%] | MIC [1] [µg/mL]
c1ccc(CSc2ncccc2-c2nnc(SCC3CO3)o2)cc1 (stereo not drawn) | 1000 (≈ 2800 µM) | 62.5 (≈ 175 µM) | 500 (≈ 1400 µM) | 125 (≈ 350 µM) | 62.5 (≈ 175 µM) | 250 (≈ 699 µM) | 1000 (≈ 2800 µM) | 97 | 500 (≈ 1400 µM)
CC1(C)S[C@@H]2[C@H](NC(=O)[C@H](N)c3ccccc3)C(=O)N2[C@H]1C(=O)O [AMPICILLIN] | – | 100 (≈ 286 µM) | – | 100 (≈ 286 µM) | 250 (≈ 715 µM) | 100 (≈ 286 µM) | – | – | –
COC1=CC(=O)C[C@@H](C)[C@]12Oc1c(Cl)c(OC)cc(OC)c1C2=O [GRISEOFULVIN] | 100 (≈ 283 µM) | – | 500 (≈ 1420 µM) | – | – | – | 100 (≈ 283 µM) | – | –
CO[C@H]1/C=C/O[C@@]2(C)Oc3c(C)c(O)c4c(O)c(c(/C=N/N5CCN(C)CC5)c(O)c4c3C2=O)NC(=O)/C(C)=C\C=C\[C@H](C)[C@H](O)[C@@H](C)[C@@H](O)[C@@H](C)[C@H](OC(C)=O)[C@@H]1C [RIFAMPIN] | – | – | – | – | – | – | – | 99 | 40 (≈ 48.6 µM)
